Source: ChEMBL document CHEMBL1201862, “PubChem BioAssay data set” (2004)
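Exposure lasted 48 hours, with cells grown in 96-well plates and compounds tested at five concentrations. GI50 is the concentration that inhibits growth by half.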 Calls of active or inactive are those of the source. Rule as the data show it: active = GI50 up to about 1.1 µM and inactive = higher.

Tests used:
Experiment in all cases: NCI-60 cell line screen, 48 h
HCC 2998 = test system: HCC 2998
RXF 393 = test system: RXF 393
A498 = test system: A498
U-251 = test system: U-251
TK-10 = test system: TK-10
OVCAR-5 = test system: OVCAR-5
HT-29 = test system: HT-29
COLO 205 = test system: COLO 205
T47D = test system: T47D
786-0 = test system: 786-0
NCI/ADR-RES = test system: NCI/ADR-RES
DU-145 = test system: DU-145
MCF7 = test system: MCF7
UACC-62 = test system: UACC-62
NCI-H460 = test system: NCI-H460
M14 = test system: M14
SF-295 = test system: SF-295
PC-3 = test system: PC-3
Malme-3M = test system: Malme-3M
SK-MEL-5 = test system: SK-MEL-5
SNB-19 = test system: SNB-19
A549 = test system: A549
OVCAR-3 = test system: OVCAR-3
NCI-H226 = test system: NCI-H226
NCI-H23 = test system: NCI-H23
EKVX = test system: EKVX
BT-549 = test system: BT-549
MDA-MB-435 = test system: MDA-MB-435
K562 = test system: K562
HCT-116 = test system: HCT-116
SW-620 = test system: SW-620
Hs-578T = test system: Hs-578T
KM12 = test system: KM12
RPMI-8226 = test system: RPMI-8226
SK-MEL-28 = test system: SK-MEL-28
SK-MEL-2 = test system: SK-MEL-2
MDA-N = test system: MDA-N
UACC-257 = test system: UACC-257
MDA-MB-231 = test system: MDA-MB-231
SN12C = test system: SN12C
HOP-62 = test system: HOP-62
HCT-15 = test system: HCT-15
UO-31 = test system: UO-31
SNB-75 = test system: SNB-75
CCRF-CEM = test system: CCRF-CEM
SF-539 = test system: SF-539
CAKI-1 = test system: CAKI-1
SF-268 = test system: SF-268
OVCAR-4 = test system: OVCAR-4
ACHN = test system: ACHN
NCI-H522 = test system: NCI-H522
LOX IMVI = test system: LOX IMVI
OVCAR-8 = test system: OVCAR-8
SK-OV-3 = test system: SK-OV-3
IGROV-1 = test system: IGROV-1
HOP-92 = test system: HOP-92
MOLT-4 = test system: MOLT-4

COc1cc2c[n+](C)c3c4cc(OC)c(OC)cc4c(OC)cc3c2cc1OC
GI50 (HCC 2998): 6010 nM (inactive) | GI50 (RXF 393): 8830 nM (inactive) | GI50 (A498): > 100000 nM (inactive) | GI50 (U-251): 2380 nM (inactive) | GI50 (TK-10): > 100000 nM (inactive) | GI50 (OVCAR-5): > 100000 nM (inactive) | GI50 (HT-29): 5480 nM (inactive) | GI50 (COLO 205): 1200 nM (inactive) | GI50 (T47D): 1850 nM (inactive) | GI50 (786-0): 5430 nM (inactive) | GI50 (NCI/ADR-RES): > 100000 nM (inactive) | GI50 (DU-145): 8450 nM (inactive) | GI50 (MCF7): 2170 nM (inactive) | GI50 (UACC-62): 6270 nM (inactive) | GI50 (NCI-H460): 17400 nM (inactive) | GI50 (M14): 30500 nM (inactive) | GI50 (SF-295): 20000 nM (inactive) | GI50 (PC-3): 12200 nM (inactive) | GI50 (Malme-3M): 2060 nM (inactive) | GI50 (SK-MEL-5): 2770 nM (inactive) | GI50 (SNB-19): 1030 nM (active) | GI50 (A549): > 65300 nM (inactive) | GI50 (OVCAR-3): 2340 nM (inactive) | GI50 (NCI-H226): 1360 nM (inactive) | GI50 (NCI-H23): 5580 nM (inactive) | GI50 (EKVX): > 74100 nM (inactive) | GI50 (BT-549): 3920 nM (inactive) | GI50 (MDA-MB-435): 11200 nM (inactive) | GI50 (K562): 4030 nM (inactive) | GI50 (HCT-116): 2920 nM (inactive) | GI50 (SW-620): 7690 nM (inactive) | GI50 (Hs-578T): 1440 nM (inactive) | GI50 (KM12): 5270 nM (inactive) | GI50 (RPMI-8226): 16400 nM (inactive) | GI50 (SK-MEL-28): 6430 nM (inactive) | GI50 (SK-MEL-2): 15800 nM (inactive) | GI50 (MDA-N): 6320 nM (inactive) | GI50 (UACC-257): 2860 nM (inactive) | GI50 (MDA-MB-231): 530 nM (active) | GI50 (SN12C): 188 nM (active) | GI50 (HOP-62): 16400 nM (inactive) | GI50 (HCT-15): > 100000 nM | GI50 (UO-31): > 100000 nM (inactive) | GI50 (SNB-75): 7910 nM (inactive) | GI50 (CCRF-CEM): 6100 nM (inactive) | GI50 (SF-539): 1870 nM (inactive) | GI50 (CAKI-1): > 100000 nM (inactive) | GI50 (SF-268): 68.9 nM (active) | GI50 (OVCAR-4): 8020 nM (inactive) | GI50 (ACHN): > 100000 nM (inactive) | GI50 (NCI-H522): 35.9 nM (active) | GI50 (LOX IMVI): 16700 nM (inactive) | GI50 (OVCAR-8): 371 nM (active) | GI50 (SK-OV-3): 42200 nM (inactive)

CC(C)[C@H](O)C(=O)N[C@H]1Cc2ccc3c(c2)[C@]24C5=C(N=C(O5)[C@H](C(C)C)NC1=O)c1nc(Cl)c(o1)-c1c(Cl)[nH]c5cccc(c15)-c1cccc2c1N[C@H]4O3
GI50 (HCC 2998): 8.79 nM (active) | GI50 (A498): 1270 nM (inactive) | GI50 (U-251): 5.47 nM (active) | GI50 (IGROV-1): 3.42 nM (active) | GI50 (TK-10): 81.8 nM (active) | GI50 (OVCAR-5): 24.2 nM (active) | GI50 (HT-29): 11.1 nM (active) | GI50 (T47D): 3900 nM (inactive) | GI50 (786-0): 5.35 nM (active) | GI50 (NCI/ADR-RES): 257 nM (active) | GI50 (DU-145): 5.24 nM (active) | GI50 (MCF7): 2.74 nM (active) | GI50 (NCI-H460): 11.9 nM (active) | GI50 (M14): 31.1 nM (active) | GI50 (SF-295): 16.7 nM (active) | GI50 (PC-3): 3.93 nM (active) | GI50 (Malme-3M): 6.43 nM (active) | GI50 (SK-MEL-5): 10.3 nM (active) | GI50 (SNB-19): 6.44 nM (active) | GI50 (A549): 14.8 nM (active) | GI50 (HOP-92): 6.93 nM (active) | GI50 (OVCAR-3): 2.53 nM (active) | GI50 (NCI-H226): 3.46 nM (active) | GI50 (NCI-H23): 6.25 nM (active) | GI50 (EKVX): 224 nM (active) | GI50 (BT-549): 8.63 nM (active) | GI50 (K562): 4.27 nM (active) | GI50 (HCT-116): 3.39 nM (active) | GI50 (SW-620): 6.71 nM (active) | GI50 (Hs-578T): 2.56 nM (active) | GI50 (KM12): 6.07 nM (active) | GI50 (SK-MEL-28): 7.18 nM (active) | GI50 (MDA-N): 1.62 nM (active) | GI50 (UACC-257): 22.9 nM (active) | GI50 (MDA-MB-231): 15 nM (active) | GI50 (HOP-62): 2330 nM (inactive) | GI50 (HCT-15): 39.2 nM | GI50 (MOLT-4): 1 nM (active) | GI50 (UO-31): 45.7 nM (active) | GI50 (CCRF-CEM): 1.03 nM (active) | GI50 (SF-539): 4.03 nM (active) | GI50 (CAKI-1): 96.8 nM (active) | GI50 (SF-268): 5.13 nM (active) | GI50 (OVCAR-4): 1570 nM (inactive) | GI50 (ACHN): 46.9 nM (active) | GI50 (NCI-H522): 2.2 nM (active) | GI50 (LOX IMVI): 3.92 nM (active) | GI50 (SK-OV-3): 1 nM (active)
